15 compounds from PubChem BioAssay AID244 (DTP/NCI, 2004) can be followed below.

“And” between values parts separate entries of the source, which are not always exact repeats. Equal entries are not always repeated. Results filed as inconclusive are left out.

This assay deals with CD2F1 mice, Lymphoma 8 ip, survival T/C. Briefly: NCI In Vivo Anticancer Drug Screen. Data for tumor model Lymphoma 8 (intraperitoneal) in CD2F1 (CDF1) mice. The following applies: higher = longer survival. As to the method: The antitumor activity of compounds was measured in mice bearing transplantable tumors. Survival or tumor size were measured and the results are expressed as the measurement made in the treated group (T) divided by the measurement made in the vehicle treated control group (C). The tumor model used in this assay is Lymphoma 8 (intraperitoneal) in CD2F1 (CDF1) mice

Setting [1] is: endpoint: median survival time, dose: 100.0 mg/kg/injection, schedule: Q01DX005 (ip), vehicle: water.
Where [2] appears, read: endpoint: median survival time, dose: 200.0 mg/kg/injection, schedule: Q01DX005 (ip), vehicle: water.
[3] abbreviates: endpoint: median survival time, dose: 400.0 mg/kg/injection, schedule: Q01DX005 (ip), vehicle: water.
Where [4] appears, read: endpoint: median survival time, dose: 12.5 mg/kg/injection, schedule: Q01DX001 (ip), vehicle: saline.
The mark [5] stands for this setting: endpoint: median survival time, dose: 12.5 mg/kg/injection, schedule: Q01DX005 (ip), vehicle: saline.
Setting [6] is: endpoint: median survival time, dose: 25.0 mg/kg/injection, schedule: Q01DX001 (ip), vehicle: saline.
Setting [7] is: endpoint: median survival time, dose: 25.0 mg/kg/injection, schedule: Q01DX005 (ip), vehicle: saline.
Setting [8] is: endpoint: median survival time, dose: 50.0 mg/kg/injection, schedule: Q01DX005 (ip), vehicle: saline.
The mark [9] stands for this setting: endpoint: median survival time, dose: 50.0 mg/kg/injection, schedule: Q01DX009 (ip), vehicle: saline.
[10] abbreviates: endpoint: median survival time, dose: 100.0 mg/kg/injection, schedule: Q01DX009 (ip), vehicle: saline.
Setting [11] is: endpoint: median survival time, dose: 100.0 mg/kg/injection, schedule: Q01DX005 (ip), vehicle: saline.

Take `Nc1ncnc2[nH]ncc12`: the T/C runs as follows: (endpoint: survival time, mean or median, dose: 1.5 mg/kg/injection, schedule: Q01DX010 (ip), vehicle: saline) 90 % of control and 95 % of control; (endpoint: survival time, mean or median, dose: 3.0 mg/kg/injection, schedule: Q01DX010 (ip), vehicle: saline) 100 % of control; (endpoint: survival time, mean or median, dose: 6.0 mg/kg/injection, schedule: Q01DX010 (ip), vehicle: saline) 90 % of control and 95 % of control; (endpoint: survival time, mean or median, dose: 12.0 mg/kg/injection, schedule: Q01DX010 (ip), vehicle: saline) 90 % of control.
Turning to `NC(=O)CC(N)C(=O)O` (stereo not drawn), the T/C is 91 % of control under setting [1]; 100 % of control under setting [2]; 100 % of control under setting [3]; 91 % of control (endpoint: median survival time, dose: 800.0 mg/kg/injection, schedule: Q01DX005 (ip), vehicle: water).
`O=NN(CCCl)C(=O)NCCCl`: the T/C is 153 % of control under setting [4]; 157 % of control under setting [5]; 261 % of control under setting [6]; 265 % of control under setting [7]; 69 % of control under setting [8]; 160 % of control and 165 % of control (endpoint: survival time, mean or median, dose: 6.25 mg/kg/injection, schedule: Q01DX010 (ip), vehicle: saline). Further, the T/C is 120 % of control (endpoint: survival time, mean or median, dose: 12.5 mg/kg/injection, schedule: Q01DX010 (ip), vehicle: saline) and 90 % of control (endpoint: survival time, mean or median, dose: 25.0 mg/kg/injection, schedule: Q01DX010 (ip), vehicle: saline).
Consider `NC(CC(=O)NO)C(=O)O` (stereo not drawn), for which the T/C reads like this: under setting [1], 100 % of control; under setting [2], 108 % of control; under setting [3], 108 % of control.
On to `O=c1[nH]c(=O)n(C2CC(O)C(CO)O2)cc1F` (stereo not drawn), for which the T/C is, setting by setting: (endpoint: survival time, mean or median, dose: 5.0 mg/kg/injection, schedule: Q01DX010 (ip), vehicle: saline) 104 % of control; (endpoint: survival time, mean or median, dose: 10.0 mg/kg/injection, schedule: Q01DX010 (ip), vehicle: saline) 109 % of control; (endpoint: survival time, mean or median, dose: 20.0 mg/kg/injection, schedule: Q01DX010 (ip), vehicle: saline) 113 % of control.
As to `CN(Cc1cnc2nc(N)nc(N)c2n1)c1ccc(C(=O)N[C@@H](CCC(=O)O)C(=O)O)cc1`, the T/C (endpoint: median survival time, dose: 0.75 mg/kg/injection, schedule: Q01DX005 (ip), vehicle: saline) is 188 % of control and 195 % of control; the T/C (endpoint: median survival time, dose: 1.5 mg/kg/injection, schedule: Q01DX005 (ip), vehicle: saline) is 161 % of control and 172 % of control; the T/C (endpoint: median survival time, dose: 3.0 mg/kg/injection, schedule: Q01DX005 (ip), vehicle: saline) is 53 % of control.
With `CCSCCC(N)C(=O)O` (stereo not drawn), the T/C is, setting by setting: (endpoint: median survival time, dose: 37.5 mg/kg/injection, schedule: Q01DX005 (ip), vehicle: saline) 107 % of control and 109 % of control; (endpoint: median survival time, dose: 75.0 mg/kg/injection, schedule: Q01DX005 (ip), vehicle: saline) 100 % of control and 103 % of control; (endpoint: median survival time, dose: 150.0 mg/kg/injection, schedule: Q01DX005 (ip), vehicle: saline) 81 % of control.
With `NC(=O)C(N)CCO` (stereo not drawn), the T/C is, setting by setting: under setting [9], 100 % of control and 102 % of control and 94 % of control; under setting [10], 97 % of control [middle of 4 runs]; (endpoint: median survival time, dose: 100.0 mg/kg/injection, schedule: Q01DX010 (ip), vehicle: saline) 87 % of control and 88 % of control; (endpoint: median survival time, dose: 200.0 mg/kg/injection, schedule: Q01DX009 (ip), vehicle: saline) 98 % of control [middle of 4 runs]; (endpoint: median survival time, dose: 200.0 mg/kg/injection, schedule: Q01DX010 (ip), vehicle: saline) 91 % of control [middle of 4 runs]; (endpoint: median survival time, dose: 400.0 mg/kg/injection, schedule: Q01DX009 (ip), vehicle: saline) 100 % of control [middle of 4 runs]. For the same compound, the T/C (endpoint: median survival time, dose: 400.0 mg/kg/injection, schedule: Q01DX010 (ip), vehicle: saline) was 95 % of control [middle of 4 runs].
As to `CN1C(=O)C=CC1=O`, the T/C by setting is: (endpoint: median survival time, dose: 0.5 mg/kg/injection, schedule: Q01DX009 (ip), vehicle: saline) 97 % of control and 102 % of control; (endpoint: median survival time, dose: 1.0 mg/kg/injection, schedule: Q01DX009 (ip), vehicle: saline) 102 % of control and 103 % of control; (endpoint: median survival time, dose: 2.0 mg/kg/injection, schedule: Q01DX009 (ip), vehicle: saline) 94 % of control and 100 % of control; (endpoint: median survival time, dose: 4.0 mg/kg/injection, schedule: Q01DX009 (ip), vehicle: saline) 94 % of control.
Take `CC(=O)NC(CCC(=O)C=[N+]=N)C(=O)O` (stereo not drawn): the T/C (endpoint: median survival time, dose: 0.5 mg/kg/injection, schedule: Q01DX002 (ip), vehicle: saline) was 100 % of control; the T/C (endpoint: median survival time, dose: 0.5 mg/kg/injection, schedule: Q04DX002 (ip), vehicle: saline) was 96 % of control; the T/C (endpoint: median survival time, dose: 1.0 mg/kg/injection, schedule: Q01DX002 (ip), vehicle: saline) is 103 % of control; the T/C (endpoint: median survival time, dose: 1.0 mg/kg/injection, schedule: Q04DX002 (ip), vehicle: saline) is 114 % of control; the T/C (endpoint: median survival time, dose: 2.0 mg/kg/injection, schedule: Q01DX002 (ip), vehicle: saline) was 106 % of control; the T/C (endpoint: median survival time, dose: 2.0 mg/kg/injection, schedule: Q04DX002 (ip), vehicle: saline) is 107 % of control.
Consider `NCCC(N)=O`, for which the T/C is, setting by setting: under setting [8], 92 % of control and 94 % of control; under setting [11], 92 % of control and 94 % of control; (endpoint: median survival time, dose: 200.0 mg/kg/injection, schedule: Q01DX005 (ip), vehicle: saline) 92 % of control and 94 % of control; (endpoint: median survival time, dose: 400.0 mg/kg/injection, schedule: Q01DX005 (ip), vehicle: saline) 92 % of control and 94 % of control.
As for `NC(CC(=O)CCl)C(=O)O` (stereo not drawn), the T/C is 100 % of control (endpoint: median survival time, dose: 1.6 mg/kg/injection, schedule: Q01DX005 (ip), vehicle: saline); 92 % of control and 96 % of control and 108 % of control (endpoint: median survival time, dose: 3.13 mg/kg/injection, schedule: Q01DX005 (ip), vehicle: saline); 100 % of control and 103 % of control and 108 % of control (endpoint: median survival time, dose: 6.25 mg/kg/injection, schedule: Q01DX005 (ip), vehicle: saline); 100 % of control under setting [4]; 100 % of control and 103 % of control and 107 % of control under setting [5]; 100 % of control under setting [6]. The T/C was 111 % of control and 114 % of control and 120 % of control under setting [7]; 108 % of control (endpoint: median survival time, dose: 50.0 mg/kg/injection, schedule: Q01DX001 (ip), vehicle: saline); 37 % of control under setting [8]; 91 % of control (endpoint: median survival time, dose: 100.0 mg/kg/injection, schedule: Q01DX001 (ip), vehicle: saline).
Consider `NC(=O)C(F)(F)C(N)C(=O)O` (stereo not drawn), for which the T/C was 88 % of control under setting [9] and 88 % of control under setting [10].
`CN(C)C(=O)/N=N/C(=O)N(C)C`: the T/C was 95 % of control and 96 % of control and 98 % of control under setting [5]; 90 % of control and 92 % of control and 96 % of control under setting [7]; 90 % of control and 91 % of control and 104 % of control under setting [8]; 88 % of control and 90 % of control (2×) under setting [11].
For `N[C@H](C(=O)O)[C@@H]1CC(Cl)=NO1`, the T/C was 105 % of control (endpoint: median survival time, dose: 0.38 mg/kg/injection, schedule: Q01DX009 (ip), vehicle: saline); 115 % of control (endpoint: median survival time, dose: 0.75 mg/kg/injection, schedule: Q01DX009 (ip), vehicle: saline); 118 % of control (endpoint: median survival time, dose: 1.5 mg/kg/injection, schedule: Q01DX009 (ip), vehicle: saline).
